According to PMC9281306 (ACS Omega, 2022):
Where two headings read alike, the source gives them in different places. Where a SMILES comes first, the peptide text is derived from it. [ ]: non-standard residue; d: D form.

Columns and labels:
[1] = system: Mabs ATCC 19977S smooth morphotype; assay: Mabs microdilution antimicrobial assay with purified peptides; assay type: cell-based, Mycobacterium abscessus; conditions: purified peptide, MHB with EDTA 100 μM, 96 h, 37 °C, OD600, three independent experiments
[2] = system: Mabs ATCC 19977R rough morphotype; assay: as above; assay type: cell-based, Mycobacterium abscessus; conditions: purified peptide, MHB with EDTA 100 μM, 96 h, 37 °C, OD600, three independent experiments
[3] = system: P. aeruginosa (ATCC 27853); assay: Cross-inhibitory activity assay; assay type: cell-based, Pseudomonas aeruginosa; conditions: MHB, 24 h, 37 °C; EDTA not given
E. coli (ATCC 25922) = assay: Cross-inhibitory activity assay; assay type: cell-based, Escherichia coli; conditions: MHB, 24 h, 37 °C; EDTA not given
MRSA USA300 = assay: Cross-inhibitory activity assay; assay type: cell-based, Staphylococcus aureus; conditions: MHB, 24 h, 37 °C; EDTA not given
[4] = system: human red blood cell (hRBC); assay: hRBC hemolytic assay; assay type: cell-based
[5] = system: E. coli urinary tract infection clinical isolates; conditions: MIC in MHB, 22 h, 37 °C, triplicate

## CC(C)C[C@@H](NC(=O)[C@@H](C)NC(=O)[C@@H](CCCCN)NC(=O)[C@@H](CCCNC(=N)N)NC(=O)[C@H](Cc1ccccc1)NC(=O)[C@H](CCC(N)=O)NC(=O)[C@H](CC(N)=O)NC(=O)[C@@H](NC(=O)[C@@H](CCCCN)NC(=O)[C@@H](CCCNC(=N)N)NC(=O)[C@H](C)NC(=O)[C@@H](CCCCN)NC(=O)[C@H](CO)NC(=O)[C@@H](CC(C)C)NC(=O)CNC(=O)[C@H](Cc1ccc(O)cc1)NC(=O)[C@H](N)CCCNC(=N)N)C(C)C)C(N)=O [ASU2009] (H-[dR]YG[dL]S[dK]A[dR][dK]VNQF[dR][dK][dA][dL]-NH2)
[1]
  Mabs ATCC19977S MIC: 256 µM
[2]
  Mabs ATCC19977R MIC: 256 µM

## CC(C)C[C@@H](NC(=O)[C@@H](C)NC(=O)[C@H](CO)NC(=O)[C@@H](CCCCN)NC(=O)[C@@H](CCCNC(=N)N)NC(=O)[C@@H](CCCNC(=N)N)NC(=O)[C@H](Cc1ccccc1)NC(=O)[C@@H](CC(C)C)NC(=O)[C@H](CC(N)=O)NC(=O)[C@H](Cc1c[nH]cn1)NC(=O)[C@@H]1CCCN1C(=O)[C@H](C)NC(=O)[C@H](CO)NC(=O)[C@@H]1CCCN1C(=O)CNC(=O)[C@@H](NC(=O)[C@H](N)CCCNC(=N)N)C(C)C)C(N)=O [ASU2019] (H-[dR]VGPSAPHN[dL]F[dR][dR][dK]S[dA][dL]-NH2)
[1]
  Mabs ATCC19977S MIC: 256 µM
[2]
  Mabs ATCC19977R MIC: 256 µM

## CC(C)C[C@@H](NC(=O)CNC(=O)[C@@H](Cc1c[nH]c2ccccc12)NC(=O)[C@@H](CCCNC(=N)N)NC(=O)[C@@H](N)CCC(N)=O)C(=O)N[C@@H](CO)C(=O)N[C@H](CC(C)C)C(=O)N[C@@H](C)C(=O)N1CCC[C@H]1C(=O)N[C@@H](Cc1ccc(O)cc1)C(=O)N[C@H](CCCCN)C(=O)N[C@@H](CC(N)=O)C(=O)N[C@@H](Cc1ccccc1)C(=O)N[C@H](CCCNC(=N)N)C(=O)N[C@H](CCCNC(=N)N)C(=O)N[C@H](CC(C)C)C(=O)N[C@@H](CO)C(N)=O [ASU2056] (H-Q[dR][dW]G[dL]S[dL]APY[dK]NF[dR][dR][dL]S-NH2)
[1]
  Mabs ATCC19977S MIC: 32 µM
[2]
  Mabs ATCC19977R MIC: >256 µM
[3]
  P. aeruginosa ATCC 27853 MIC: >32 µM
E. coli (ATCC 25922)
  E. coli ATCC 25922 MIC: 16 µM
MRSA USA300
  MRSA USA300 MIC: >32 µM

## CC(C)C[C@@H](NC(=O)[C@@H](C)NC(=O)CNC(=O)[C@@H](CC(C)C)NC(=O)[C@@H](CCCCN)NC(=O)[C@@H](CCCNC(=N)N)NC(=O)[C@@H](CCCNC(=N)N)NC(=O)[C@H](CC(N)=O)NC(=O)[C@H](Cc1ccc(O)cc1)NC(=O)[C@@H](CCCNC(=N)N)NC(=O)[C@H](C)NC(=O)[C@H](CO)NC(=O)[C@@H](CCCNC(=N)N)NC(=O)CNC(=O)[C@@H](N)Cc1ccc(O)cc1)C(=O)N[C@@H](CO)C(=O)NCC(N)=O [ASU2059] (H-YG[dR]SA[dR]YN[dR][dR][dK][dL]G[dA][dL]SG-NH2)
[1]
  Mabs ATCC19977S MIC: 256 µM
[2]
  Mabs ATCC19977R MIC: 256 µM

## CC(C)C[C@@H](NC(=O)CNC(=O)[C@H](CO)NC(=O)[C@@H](CCCCN)NC(=O)[C@@H](CCCNC(=N)N)NC(=O)[C@@H](Cc1c[nH]c2ccccc12)NC(=O)[C@@H](CCCNC(=N)N)NC(=O)[C@H](Cc1ccccc1)NC(=O)[C@H](CC(N)=O)NC(=O)[C@H](Cc1ccc(O)cc1)NC(=O)[C@@H](CCCNC(=N)N)NC(=O)[C@H](C)NC(=O)[C@H](CO)NC(=O)[C@@H](Cc1c[nH]c2ccccc12)NC(=O)[C@@H](CCCNC(=N)N)NC(=O)CNC(=O)[C@@H](N)C(C)C)C(N)=O [ASU2060] (H-VG[dR][dW]SA[dR]YNF[dR][dW][dR][dK]SG[dL]-NH2)
[4]; 32 µM
  hRBC hemolysis: less than 1%
[1]
  Mabs ATCC19977S MIC: 8 µM
[2]
  Mabs ATCC19977R MIC: 256 µM
[3]
  P. aeruginosa ATCC 27853 MIC: 8 µM
E. coli (ATCC 25922)
  E. coli ATCC 25922 MIC: 4 µM
MRSA USA300
  MRSA USA300 MIC: 8 µM

## CC1(C)S[C@@H]2[C@H](NC(=O)[C@H](N)c3ccccc3)C(=O)N2[C@H]1C(=O)O [Ampicillin]
[5]; E. coli clinical isolate 23
  Ampicillin susceptibility: susceptible
[5]; E. coli clinical isolate 36
  Ampicillin susceptibility: resistant
[5]; E. coli clinical isolate 97
  Ampicillin susceptibility: resistant
[5]; E. coli clinical isolate 98
  Ampicillin susceptibility: resistant

## Triton X-100 [reference compound]
[4]; 1%, 4% hRBC in saline, 37 °C, OD475
  hRBC lysis by positive control: complete hRBC lysis
